Where “and” joins values, the source holds several entries; their conditions need not be identical. Equal entries are not always repeated. Inconclusive results and toxic doses are left out.
Tested on: P388 leukemia ip, CD2F1 mice, survival T/C
Experiment: NCI In Vivo Anticancer Drug Screen. Data for tumor model P388 Leukemia (intraperitoneal) in CD2F1 (CDF1) mice
Conditions: endpoint: median survival time, higher = longer survival
Outline: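 Mice carrying the transplanted tumor received test compound or vehicle. Survival was recorded in each group, and the value is the treated-group measurement divided by that of the vehicle-treated control group.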

[1] = dose: 50.0 mg/kg/injection, schedule: Q01DX005 (ip), vehicle: Klucel (hydroxypropylcellulose) (HPC)
[2] = dose: 100.0 mg/kg/injection, schedule: Q01DX005 (ip), vehicle: Klucel (hydroxypropylcellulose) (HPC)
[3] = dose: 60.0 mg/kg/injection, schedule: Q01DX005 (ip), vehicle: saline with Tween-80
[4] = dose: 120.0 mg/kg/injection, schedule: Q01DX005 (ip), vehicle: saline with Tween-80
[5] = dose: 50.0 mg/kg/injection, schedule: Q01DX009 (ip), vehicle: Klucel (hydroxypropylcellulose) (HPC)
[6] = dose: 100.0 mg/kg/injection, schedule: Q01DX009 (ip), vehicle: Klucel (hydroxypropylcellulose) (HPC)
[7] = dose: 200.0 mg/kg/injection, schedule: Q01DX009 (ip), vehicle: Klucel (hydroxypropylcellulose) (HPC)
[8] = dose: 50.0 mg/kg/injection, schedule: Q01DX005 (ip), vehicle: saline with Tween-80

Q: Which T/C (dose: 100.0 mg/kg/injection, schedule: Q04DX003 (ip), vehicle: saline with Tween-80) does the source give for Nc1cc(N)c([N+](=O)[O-])cc1[N+](=O)[O-] here?
A: 91 % of control

Q: And the T/C (dose: 200.0 mg/kg/injection, schedule: Q04DX003 (ip), vehicle: saline with Tween-80)?
A: 100 % of control

Q: And the T/C (dose: 400.0 mg/kg/injection, schedule: Q04DX003 (ip), vehicle: saline with Tween-80)?
A: 87 % of control

Q: Which T/C (dose: 2.5 mg/kg/injection, schedule: Q01DX009 (ip), vehicle: Klucel (hydroxypropylcellulose) (HPC)) does the source give for COC1=CC(C)C2CC3OC(=O)CC4C(C)C(=O)C(O)C(C2(C)C1=O)C34C (stereo not given) here?
A: 90 % of control

Q: What about the T/C (dose: 5.0 mg/kg/injection, schedule: Q01DX009 (ip), vehicle: Klucel (hydroxypropylcellulose) (HPC)) of the same compound?
A: 100 % of control

Q: And the T/C (dose: 10.0 mg/kg/injection, schedule: Q01DX009 (ip), vehicle: Klucel (hydroxypropylcellulose) (HPC))?
A: 106 % of control

Q: What about the T/C (dose: 20.0 mg/kg/injection, schedule: Q01DX009 (ip), vehicle: Klucel (hydroxypropylcellulose) (HPC)) of the same compound?
A: 98 % of control

Q: What does the source list for CNC(=O)N(C)C1OC(CO)C(O)C1O (stereo not given)?
A: T/C (dose: 100.0 mg/kg/injection, schedule: Q04DX003 (ip), vehicle: water): 113 % of control; T/C (dose: 200.0 mg/kg/injection, schedule: Q04DX003 (ip), vehicle: water): 119 % of control; T/C (dose: 400.0 mg/kg/injection, schedule: Q04DX003 (ip), vehicle: water): 119 % of control

Q: With Cc1ccc(NCn2c(=S)sc3ccccc32)cc1 as the compound, how does the T/C [1] read?
A: 89 % of control

Q: And the T/C [2]?
A: 88 % of control

Q: What about the T/C (dose: 200.0 mg/kg/injection, schedule: Q01DX005 (ip), vehicle: Klucel (hydroxypropylcellulose) (HPC)) of the same compound?
A: 98 % of control

Q: Cc1ccc(NC(=O)Cc2nc3ccccc3s2)c(C)c1 was tested. Which T/C [3] did it give?
A: 103 % of control

Q: And the T/C [4]?
A: 110 % of control

Q: For CCCCOc1ccc(Nc2c(C(=O)O)cnc3cc4c(cc23)OCO4)cc1, which T/C (dose: 60.0 mg/kg/injection, schedule: Q01DX005 (ip), vehicle: Klucel (hydroxypropylcellulose) (HPC)) is on record?
A: 100 % of control

Q: And the T/C (dose: 120.0 mg/kg/injection, schedule: Q01DX005 (ip), vehicle: Klucel (hydroxypropylcellulose) (HPC))?
A: 91 % of control

Q: And the T/C (dose: 240.0 mg/kg/injection, schedule: Q01DX005 (ip), vehicle: Klucel (hydroxypropylcellulose) (HPC))?
A: 97 % of control

Q: Which T/C (dose: 50.0 mg/kg/injection, schedule: Q01DX009 (ip), vehicle: saline) does the source give for C=C(C)C(=NC(C)(C)C)Nc1cccc(Cl)c1 here?
A: 100 % of control

Q: What about the T/C (dose: 100.0 mg/kg/injection, schedule: Q01DX009 (ip), vehicle: saline) of the same compound?
A: 104 % of control

Q: And the T/C (dose: 200.0 mg/kg/injection, schedule: Q01DX009 (ip), vehicle: saline)?
A: 100 % of control

Q: For Nc1ccc(S(=O)(=O)Nc2nc(-c3ccccc3)cc(-c3ccccc3O)n2)cc1, which T/C [3] is on record?
A: 96 % of control

Q: And the T/C [4]?
A: 96 % of control

Q: CCN(CC)CCNC(=O)c1nn(C)c(=S)[nH]c1=O was tested. Which T/C (dose: 100.0 mg/kg/injection, schedule: Q04DX002 (ip), vehicle: Klucel (hydroxypropylcellulose) (HPC)) did it give?
A: 93 % of control

Q: And the T/C (dose: 200.0 mg/kg/injection, schedule: Q04DX002 (ip), vehicle: Klucel (hydroxypropylcellulose) (HPC))?
A: 93 % of control

Q: And the T/C (dose: 400.0 mg/kg/injection, schedule: Q04DX002 (ip), vehicle: Klucel (hydroxypropylcellulose) (HPC))?
A: 101 % of control

Q: O=C1C=CC(=O)N1CC[P+](c1ccccc1)(c1ccccc1)c1ccccc1 was tested. Which T/C (dose: 0.78 mg/kg/injection, schedule: Q01DX009 (ip), vehicle: water) did it give?
A: 118 % of control

Q: And the T/C (dose: 1.56 mg/kg/injection, schedule: Q01DX009 (ip), vehicle: water)?
A: 102 % of control

Q: And the T/C (dose: 3.13 mg/kg/injection, schedule: Q01DX009 (ip), vehicle: water)?
A: 106 % of control

Q: And the T/C (dose: 6.25 mg/kg/injection, schedule: Q01DX009 (ip), vehicle: water)?
A: 105 % of control

Q: And the T/C (dose: 12.5 mg/kg/injection, schedule: Q01DX009 (ip), vehicle: water)?
A: 112 % of control

Q: And the T/C (dose: 25.0 mg/kg/injection, schedule: Q01DX009 (ip), vehicle: water)?
A: 112 % of control and 120 % of control

Q: Which results are given for COc1ccc(CCN2CN=C(Sc3ccc([N+](=O)[O-])cc3Cl)NC2)cc1OC?
A: T/C (dose: 50.0 mg/kg/injection, schedule: Q01DX009 (ip), vehicle: saline with Tween-80): 98 % of control; T/C (dose: 100.0 mg/kg/injection, schedule: Q01DX009 (ip), vehicle: saline with Tween-80): 98 % of control; T/C (dose: 200.0 mg/kg/injection, schedule: Q01DX009 (ip), vehicle: saline with Tween-80): 93 % of control

Q: Which T/C [5] does the source give for OCCSc1nc2ccc(N=Cc3ccccc3O)cc2s1 here?
A: 100 % of control

Q: What about the T/C [6] of the same compound?
A: 100 % of control

Q: And the T/C [7]?
A: 90 % of control

Q: Which T/C (dose: 100.0 mg/kg/injection, schedule: Q01DX001 (sc), vehicle: other) does the source give for C1CCC([N-]C2CCCCC2)CC1.C1CCC([N-]C2CCCCC2)CC1.[Cl][Pt+2][Cl] here?
A: 103 % of control

Q: What about the T/C (dose: 200.0 mg/kg/injection, schedule: Q01DX001 (sc), vehicle: other) of the same compound?
A: 107 % of control

Q: What does the source list for O=C(Sc1ccccc1)N1CCN(C(=O)Sc2ccccc2)CC1?
A: T/C [5]: 100 % of control; T/C [6]: 100 % of control; T/C [7]: 109 % of control

Q: COc1cccc(CN2CCN(N)CC2)c1 was tested. Which T/C (dose: 12.5 mg/kg/injection, schedule: Q01DX005 (ip), vehicle: Klucel (hydroxypropylcellulose) (HPC)) did it give?
A: 100 % of control

Q: What about the T/C (dose: 25.0 mg/kg/injection, schedule: Q01DX005 (ip), vehicle: Klucel (hydroxypropylcellulose) (HPC)) of the same compound?
A: 104 % of control

Q: What about the T/C [1] of the same compound?
A: 107 % of control

Q: And the T/C [2]?
A: 100 % of control

Q: For Cn1c(O)c(N=NC(=S)NC(=O)C23CC4CC(CC(C4)C2)C3)c2ccccc21, which T/C (dose: 1.56 mg/kg/injection, schedule: Q01DX005 (ip), vehicle: saline with Tween-80) is on record?
A: 96 % of control

Q: And the T/C (dose: 3.12 mg/kg/injection, schedule: Q01DX005 (ip), vehicle: saline with Tween-80)?
A: 97 % of control

Q: What about the T/C (dose: 6.25 mg/kg/injection, schedule: Q01DX005 (ip), vehicle: saline with Tween-80) of the same compound?
A: 103 % of control

Q: What about the T/C [8] of the same compound?
A: 86 % of control

Q: What about the T/C (dose: 200.0 mg/kg/injection, schedule: Q01DX005 (ip), vehicle: saline with Tween-80) of the same compound?
A: 89 % of control

Q: CC(=O)NS(=O)(=O)c1ccc(N=Nc2c(C)nn(C(=O)c3cccnc3)c2-c2ccccc2)cc1 was tested. Which T/C [8] did it give?
A: 87 % of control

Q: And the T/C (dose: 100.0 mg/kg/injection, schedule: Q01DX005 (ip), vehicle: saline with Tween-80)?
A: 89 % of control

Q: How did the T/C (dose: 0.5 micrograms/kg/injection, schedule: Q01DX010 (ip), vehicle: saline) turn out when CSC1SCC2C(=O)N(C)C(C(C)C)C(=O)OCC(NC(=O)c3cnc4ccccc4n3)C(=O)NC(C)C(=O)N(C)C1C(=O)N(C)C(C(C)C)C(=O)OCC(NC(=O)c1cnc3ccccc3n1)C(=O)NC(C)C(=O)N2C (stereo not given) was run?
A: 100 % of control

Q: And the T/C (dose: 30.0 micrograms/kg/injection, schedule: Q01DX009 (oral), vehicle: saline with Tween-80)?
A: 97 % of control

Q: What about the T/C (dose: 60.0 micrograms/kg/injection, schedule: Q01DX009 (ip), vehicle: saline with Tween-80) of the same compound?
A: 205 % of control

Q: And the T/C (dose: 60.0 micrograms/kg/injection, schedule: Q01DX009 (oral), vehicle: saline with Tween-80)?
A: 101 % of control

Q: What about the T/C (dose: 120.0 micrograms/kg/injection, schedule: Q01DX009 (oral), vehicle: saline with Tween-80) of the same compound?
A: 96 % of control

Q: What about the T/C (dose: 240.0 micrograms/kg/injection, schedule: Q01DX009 (ip), vehicle: saline with Tween-80) of the same compound?
A: 117 % of control

Q: And the T/C (dose: 240.0 micrograms/kg/injection, schedule: Q01DX009 (oral), vehicle: saline with Tween-80)?
A: 99 % of control

Q: And the T/C (dose: 480.0 micrograms/kg/injection, schedule: Q01DX009 (oral), vehicle: saline with Tween-80)?
A: 96 % of control

Q: For COc1cccc2c(NCCCCCCCCNc3c4ccc([N+](=O)[O-])cc4nc4c(OC)cccc34)c3ccc([N+](=O)[O-])cc3nc12, which T/C (dose: 2.5 mg/kg/injection, schedule: Q01DX009 (ip), vehicle: other) is on record?
A: 157 % of control

Q: What about the T/C (dose: 5.0 mg/kg/injection, schedule: Q01DX009 (ip), vehicle: other) of the same compound?
A: 152 % of control

Q: What about the T/C (dose: 10.0 mg/kg/injection, schedule: Q01DX009 (ip), vehicle: other) of the same compound?
A: 158 % of control and 172 % of control

Q: What about the T/C (dose: 20.0 mg/kg/injection, schedule: Q01DX009 (ip), vehicle: other) of the same compound?
A: 170 % of control

Q: What about the T/C (dose: 40.0 mg/kg/injection, schedule: Q01DX009 (ip), vehicle: other) of the same compound?
A: 166 % of control

Q: Which T/C (dose: 12.5 mg/kg/injection, schedule: Q01DX009 (ip), vehicle: other) does the source give for Cc1nccc(N[N+](=O)[O-])c1C here?
A: 100 % of control

Q: And the T/C (dose: 25.0 mg/kg/injection, schedule: Q01DX009 (ip), vehicle: other)?
A: 93 % of control

Q: What about the T/C (dose: 50.0 mg/kg/injection, schedule: Q01DX009 (ip), vehicle: other) of the same compound?
A: 117 % of control

Q: What about the T/C (dose: 100.0 mg/kg/injection, schedule: Q01DX009 (ip), vehicle: other) of the same compound?
A: 100 % of control

Q: What about the T/C (dose: 200.0 mg/kg/injection, schedule: Q01DX009 (ip), vehicle: other) of the same compound?
A: 103 % of control

Q: Which results are given for C(=N\Nc1nnc2c3ccccc3c3ccccc3c2n1)/c1ccc2c(c1)OCO2?
A: T/C (dose: 50.0 mg/kg/injection, schedule: Q04DX002 (ip), vehicle: suspension in saline): 91 % of control; T/C (dose: 100.0 mg/kg/injection, schedule: Q04DX002 (ip), vehicle: suspension in saline): 88 % of control; T/C (dose: 200.0 mg/kg/injection, schedule: Q04DX002 (ip), vehicle: suspension in saline): 91 % of control
